# Measurements taken from article PMC7217150, “Synthesis, Modification, and Biological Evaluation of a Library of Novel Water‐Soluble Thiopyridone‐Based Organometallic Complexes and Their Unexpected (Biological) Behavior” (Chemistry (Weinheim an Der Bergstrasse, Germany), 2020).
# Experiments:
# Format in all cases: cell-based, human
# [1] = system: CH1/PA‐1; test: MTT cytotoxicity assay, monolayer culture; details: CH1/PA‐1, MTT assay, exposure time 96 h, means ± SDs
# Description: (§1) A549 (non‐small cell lung carcinoma), SW480 and HCT‐116 (both colon carcinoma) were kindly provided by Brigitte Marian, Institute of Cancer Research, Department of Medicine I, Medical University of Vienna, Austria. The cell line CH1/PA‐1 (ovarian teratocarcinoma) was kindly provided by Lloyd R. Kelland (CRC Centre for Cancer Therapeutics, Institute of Cancer Research, Sutton, UK). All cell culture media (including supplements) and reagents were obtained from Sigma–Aldrich, and all plasticware from StarLab, unless indicated otherwise.
# [2] = system: SW480; test: MTT cytotoxicity assay, monolayer culture; details: for IC50: SW480, MTT assay, exposure time 96 h, means ± SDs
# Description: as §1
# [3] = system: A549; test: MTT cytotoxicity assay, monolayer culture; details: exposure time 96 h, means ± SDs
# Description: as §1
# [4] = system: CH1/PA‐1; test: Cell cycle distribution, flow cytometry with propidium iodide; details: for Cell cycle distribution G1, % / Cell cycle distribution S, % / Cell cycle distribution G2/M, %: 24 h, mean ± SD; for Relative change in cell cycle distribution G1, % / Relative change in cell cycle distribution G2/M, % / Relative change in cell cycle distribution S, %: difference to untreated control
# Description: (§2) The influence of two ligands, as well as seven complexes on cell cycle distribution was tested in two of the cancer cell lines (SW480, CH1/PA‐1) by means of flow cytometry. The cell cycle distribution (G1, S, G2/M phase in %; Table S37) was investigated upon DNA staining with propidium iodide.
# (§3) CH1/PA‐1 and SW480 cells were harvested by trypsinization, 8×10^4 and 1.2×10^5 cells per well were seeded into 12‐well plates, respectively. The cells were allowed to attach and resume proliferation for 24 h after the seeding. […] After continuous exposure for 24 h at 37 °C and under 5 % CO2, the cells were harvested by trypsinization and centrifuged at 300 g for 3 min. The cells were washed with PBS (1 mL) and resuspended in propidium iodine (PI) containing HSF buffer (600 μL; 0.1 % Triton X‐100, 0.1 % sodium citrate, 50 μg mL^−1 PI in PBS). After incubation overnight at 4 °C in the dark, 5×10^3 cells were measured by flow cytometry with a Millipore Guava easyCyte 8HT instrument (Luminex, USA). Data were evaluated by means of FlowJo software (Tree Star) using Watson Pragmatic algorithms.60 The fitting of the curve was chosen to keep the root mean square error between 1.0 and 2.0, alongside with good fitting visual model.
# [5] = system: SW480; test: as above; details: for Cell cycle distribution G1, % / Cell cycle distribution G2/M, % / Cell cycle distribution S, %: 24 h, mean ± SD; for Relative change in cell cycle distribution G1, % / Relative change in cell cycle distribution G2/M, % / Relative change in cell cycle distribution S, %: difference to untreated control
# Description: as §2, §3
compound,measurement,setting,value
"Cc1c(O)c(=S)ccn1-c1cccc2ccccc12 [Compound 2 d, 3‐hydroxy‐2‐methyl‐1‐(naphthalene‐1‐yl)pyridine‐4(1H)‐thione]",IC50,[1]; Homo sapiens,0.62 ± 0.08 µM
same,IC50,[2]; Homo sapiens,0.35 ± 0.02 µM
same,IC50,[3]; Homo sapiens,1.6 ± 0.1 µM
"Cc1c([O-])c(=S)ccn1C.Cc1ccc(C(C)C)cc1.[Cl-].[Os+2] [Compound 4 a, [Chlorido[1,2‐dimethyl‐3‐(oxo‐κO)‐pyridine‐4(1H)‐thionato‐κS](η^6‐p‐cymene)osmium(II)]]",IC50,[1],112 ± 27 µM
same,IC50,[2],> 200 µM
same,IC50,[3],> 200 µM
"COc1cc([C@@H]2c3cc4c(cc3[C@@H](O[C@@H]3O[C@@H]5CO[C@@H](C)O[C@H]5[C@H](O)[C@H]3O)[C@H]3COC(=O)[C@H]23)OCO4)cc(OC)c1O [Etoposide, reference compound]","Cell cycle distribution G1, %","[4]; CH1/PA-1, 0.25 µM",8 ± 5%
same,"Cell cycle distribution S, %","[4]; CH1/PA-1, 0.25 µM",15 ± 4%
same,"Relative change in cell cycle distribution G1, %","[4]; CH1/PA-1, 0.25 µM",-32%
same,"Relative change in cell cycle distribution G2/M, %","[4]; CH1/PA-1, 0.25 µM",53%
same,"Relative change in cell cycle distribution S, %","[4]; CH1/PA-1, 0.25 µM",-21%
same,"Cell cycle distribution G1, %","[4]; CH1/PA-1, 0.5 µM",4 ± 1%
same,"Cell cycle distribution G2/M, %","[4]; CH1/PA-1, 0.5 µM",85 ± 5%
same,"Cell cycle distribution S, %","[4]; CH1/PA-1, 0.5 µM",10 ± 3%
same,"Relative change in cell cycle distribution G1, %","[4]; CH1/PA-1, 0.5 µM",-36%
same,"Relative change in cell cycle distribution G2/M, %","[4]; CH1/PA-1, 0.5 µM",61%
same,"Cell cycle distribution G1, %","[4]; CH1/PA-1, 1 µM",3 ± 3%
same,"Cell cycle distribution G2/M, %","[4]; CH1/PA-1, 1 µM",87 ± 6%
same,"Cell cycle distribution S, %","[4]; CH1/PA-1, 1 µM",10 ± 5%
same,"Relative change in cell cycle distribution G1, %","[4]; CH1/PA-1, 1 µM",-37%
same,"Relative change in cell cycle distribution G2/M, %","[4]; CH1/PA-1, 1 µM",63%
same,"Cell cycle distribution G1, %","[5]; SW480, 0.25 µM",9 ± 2%
same,"Cell cycle distribution G2/M, %","[5]; SW480, 0.25 µM",65 ± 10%
same,"Cell cycle distribution S, %","[5]; SW480, 0.25 µM",26 ± 4%
same,"Relative change in cell cycle distribution G1, %","[5]; SW480, 0.25 µM",-39%
same,"Relative change in cell cycle distribution G2/M, %","[5]; SW480, 0.25 µM",46%
same,"Relative change in cell cycle distribution S, %","[5]; SW480, 0.25 µM",-7%
same,"Cell cycle distribution G1, %","[5]; SW480, 0.5 µM",3 ± 1%
same,"Cell cycle distribution G2/M, %","[5]; SW480, 0.5 µM",78 ± 6%
same,"Cell cycle distribution S, %","[5]; SW480, 0.5 µM",19 ± 7%
same,"Relative change in cell cycle distribution G1, %","[5]; SW480, 0.5 µM",-45%
same,"Relative change in cell cycle distribution G2/M, %","[5]; SW480, 0.5 µM",59%
same,"Relative change in cell cycle distribution S, %","[5]; SW480, 0.5 µM",-14%
same,"Cell cycle distribution G1, %","[5]; SW480, 1 µM",6 ± 4%
same,"Cell cycle distribution G2/M, %","[5]; SW480, 1 µM",65 ± 10%
same,"Cell cycle distribution S, %","[5]; SW480, 1 µM",30 ± 15%
same,"Relative change in cell cycle distribution G1, %","[5]; SW480, 1 µM",-42%
same,"Relative change in cell cycle distribution G2/M, %","[5]; SW480, 1 µM",46%
same,"Relative change in cell cycle distribution S, %","[5]; SW480, 1 µM",-3%
"Cc1c([O-])c(=S)ccn1-c1cccc2ccccc12.Cc1ccc(C(C)C)cc1.[Cl-].[Os+2] [Compound 4 d, Chlorido[2‐methyl‐1‐(naphthalene‐1‐yl)‐3‐(oxo‐κO)‐pyridine‐4(1H)‐thionato‐κS](η^6‐p‐cymene)osmium(II)]",IC50,[1],1.3 ± 0.3 µM
same,IC50,[2],7.7 ± 0.3 µM
same,IC50 relative to the osmium thiomaltol complex,[2]; SW480 cells,four times higher
same,IC50,[3],2.4 ± 0.3 µM
"Chlorido[1‐(naphthalene‐1‐yl)‐2‐methyl‐3‐oxo‐κO‐pyridine‐4(1H)‐thionato‐κS](η^5‐1,2,3,4,5‐pentamethylcyclopentadienyl)iridium(III) [Compound 6 d]",IC50,[1],0.68 ± 0.02 µM
same,IC50,[2],0.8 ± 0.15 µM
same,IC50,[3],2 ± 0.4 µM
"Cc1c(O)c(=S)ccn1-c1ccccc1 [Compound 2 b, 3‐hydroxy‐2‐methyl‐1‐phenylpyridine‐4(1H)‐thione]",IC50,[1]; Homo sapiens,0.52 ± 0.05 µM
same,IC50,[2]; Homo sapiens,0.52 ± 0.03 µM
same,IC50,[3]; Homo sapiens,1.6 ± 1.2 µM
"Cc1c([O-])c(=S)ccn1-c1ccccc1.Cc1ccc(C(C)C)cc1.[Cl-].[Ru+2] [Compound 3 b, Chlorido[2‐methyl‐3‐(oxo‐κO)‐1‐phenylpyridine‐4(1H)‐thionato‐κS](η^6‐p‐cymene)ruthenium(II)]",IC50,[1],0.94 ± 0.08 µM
same,IC50,[2],2.8 ± 0.1 µM
same,IC50,[3],2.4 ± 0.8 µM
"Cc1c([O-])c(=S)ccn1-c1cccc2ccccc12.Cc1ccc(C(C)C)cc1.[Cl-].[Ru+2] [Compound 3 d, Chlorido[2‐methyl‐1‐(naphthalene‐1‐yl)‐3‐(oxo‐κO)‐pyridine‐4(1H)‐thionato‐κS](η^6‐p‐cymene)ruthenium(II)]",IC50,[1],1.6 ± 0.3 µM
same,IC50,[2],4 ± 0.3 µM
same,IC50,[3],2.1 ± 0.3 µM
"Cc1c(O)c(=S)ccn1Cc1ccccc1 [Compound 2 c, 3‐hydroxy‐2‐methyl‐1‐benzylpyridine‐4(1H)‐thione]","Cell cycle distribution G1, %","[4]; CH1/PA-1, 2.5 µM",43 ± 16%
same,"Cell cycle distribution G2/M, %","[4]; CH1/PA-1, 2.5 µM",19 ± 9%
same,"Cell cycle distribution S, %","[4]; CH1/PA-1, 2.5 µM",37 ± 5%
same,"Relative change in cell cycle distribution G1, %","[4]; CH1/PA-1, 2.5 µM",3%
same,"Relative change in cell cycle distribution G2/M, %","[4]; CH1/PA-1, 2.5 µM",-5%
same,"Relative change in cell cycle distribution S, %","[4]; CH1/PA-1, 2.5 µM",1%
same,"Cell cycle distribution G1, %","[4]; CH1/PA-1, 5 µM",31 ± 5%
same,"Cell cycle distribution G2/M, %","[4]; CH1/PA-1, 5 µM",32 ± 4%
same,"Cell cycle distribution S, %","[4]; CH1/PA-1, 5 µM",37 ± 2%
same,"Relative change in cell cycle distribution G1, %","[4]; CH1/PA-1, 5 µM",-9%
same,"Relative change in cell cycle distribution G2/M, %","[4]; CH1/PA-1, 5 µM",8%
same,"Relative change in cell cycle distribution S, %","[4]; CH1/PA-1, 5 µM",1%
same,"Cell cycle distribution G1, %","[4]; CH1/PA-1, 10 µM",31 ± 6%
same,"Cell cycle distribution G2/M, %","[4]; CH1/PA-1, 10 µM",26 ± 10%
same,"Cell cycle distribution S, %","[4]; CH1/PA-1, 10 µM",43 ± 8%
same,"Relative change in cell cycle distribution G1, %","[4]; CH1/PA-1, 10 µM",-9%
same,"Relative change in cell cycle distribution G2/M, %","[4]; CH1/PA-1, 10 µM",2%
same,"Relative change in cell cycle distribution S, %","[4]; CH1/PA-1, 10 µM",7%
same,"effect on cell cycle distribution, in words",[4]; CH1/PA‐1 cells,little effect
same,decrease in G1 phase,"[4]; CH1/PA‐1 cells, 10 μM",9%
same,"Cell cycle distribution G1, %","[5]; SW480, 5 µM",30 ± 1%
same,"Cell cycle distribution G2/M, %","[5]; SW480, 5 µM",31 ± 3%
same,"Cell cycle distribution S, %","[5]; SW480, 5 µM",39 ± 2%
same,"Relative change in cell cycle distribution G1, %","[5]; SW480, 5 µM",-18%
same,"Relative change in cell cycle distribution G2/M, %","[5]; SW480, 5 µM",12%
same,"Relative change in cell cycle distribution S, %","[5]; SW480, 5 µM",6%
same,"Cell cycle distribution G1, %","[5]; SW480, 10 µM",27 ± 3%
same,"Cell cycle distribution G2/M, %","[5]; SW480, 10 µM",27 ± 3%
same,"Cell cycle distribution S, %","[5]; SW480, 10 µM",45 ± 2%
same,"Relative change in cell cycle distribution G1, %","[5]; SW480, 10 µM",-21%
same,"Relative change in cell cycle distribution G2/M, %","[5]; SW480, 10 µM",8%
same,"Relative change in cell cycle distribution S, %","[5]; SW480, 10 µM",12%
same,"Cell cycle distribution G1, %","[5]; SW480, 20 µM",34 ± 5%
same,"Cell cycle distribution G2/M, %","[5]; SW480, 20 µM",17 ± 3%
same,"Cell cycle distribution S, %","[5]; SW480, 20 µM",49 ± 1%
same,"Relative change in cell cycle distribution G1, %","[5]; SW480, 20 µM",-14%
same,"Relative change in cell cycle distribution G2/M, %","[5]; SW480, 20 µM",-2%
same,"Relative change in cell cycle distribution S, %","[5]; SW480, 20 µM",16%
same,decrease in G1,"[5]; SW480 cells, 2.5 μM",18%
same,IC50,[2]; Homo sapiens,0.28 ± 0.04 µM
same,IC50,[3]; Homo sapiens,0.79 ± 0.12 µM
"Chlorido[1‐phenyl‐2‐methyl‐3‐oxo‐κO‐pyridine‐4(1H)‐thionato‐κS](η^5‐1,2,3,4,5‐pentamethylcyclopentadienyl)iridium(III) [Compound 6 b]",IC50,[1],0.82 ± 0.05 µM
same,IC50,[2],0.59 ± 0.08 µM
same,IC50,[3],2.2 ± 0.8 µM
